Where two headings read alike, the source gives them in different places.
How the values were obtained:
[1] = Extrapyramidal activity: catalepsy inducing activity test; assay type: in vivo, dd strain male mice; conditions: mouse, in vivo; oral; catalepsy checked 1 and 4 hours after administration; strained state over 30 seconds; mice
Description: (§1) A designated amount of the test compound was orally administered to dd strain male mice (bodyweight, 22 to 27 g), and 1 and 4 hours after the administration, catalepsy induction was checked according to the Wirth et al method. Thus, each of the animals was forced to hang its forepaws onto a metal pole of 2.5 mm in diameter horizontally situated at a height of 5 cm to keep in a strained state. The test was made with three repetitions, and the presence of at least one case in which the animal was kept in the strained state over a period of 30 seconds was deemed to have caused catalepsy.

[2] = tested on: climbing behavior induced by apomorphine; assay: Anti-climbing behavior test (suppression of climbing behavior induced by apomorphine in mice); assay type: in vivo, dd strain male mice; conditions: for ED50: Mus musculus
Excerpt: This activity was examined through the anti-climbing behavior test, i.e. the test for suppressing the climbing behavior induced by apomorphine in mice. A designated amount of the test compound was orally administered to several groups of dd strain male mice (bodyweight, 20 to 25 g; one group, 5 mice), and each of the animals was charged in an individual column cage of 12 cm in diameter and 14 cm in height having metal poles (each pole, 2 mm in diameter) vertically installed and arranged along the periphery with intervals of 1 cm. […]
0 All the paws were on the floor
1 Only forepaws seized the pole of the cage
2 All the paws seized the pole of the cage;
climbing behavior observed discontinu-
3 Continuous climbing behavior observed

[3] = tested on: catalepsy induction; assay: Extrapyramidal activity: catalepsy inducing activity test; assay type: in vivo, dd strain male mice; conditions: oral
Description: as §1

[4] = cited from earlier work; for side effects on clinical use, in words: conventional neuroleptics
[5] = sc, subcutaneous, apomorphine 1.0 mg/kg s.c., mice, read-out: ED50, Subcutaneous administration (anti-climbing, neuroleptic activity)
[6] = oral, after 1 hour, apomorphine 1.0 mg/kg s.c., mice, read-out: ED50, Oral administration After 1 hour (anti-climbing, neuroleptic activity)
[7] = oral, after 4 hours, apomorphine 1.0 mg/kg s.c., mice, read-out: ED50, Oral administration After 4 hours (anti-climbing, neuroleptic activity)

With `O=C(c1ccc(F)cc1)C1CCN(CCCCN2C(=O)[C@@H]3[C@H]4CC[C@H](C4)[C@@H]3C2=O)CC1` [Compound No. 1, N-[4-{4-(4-Fluorobenzoyl)piperidinyl}butyl]bicyclo[2.2.1]heptane-2,3-di-exo-carboximide] as the compound, how does the ED50 [1] read?
Its ED50 is 25 to 50 mg/kg.

And the ED50 [2, 5]?
Its ED50 is 0.12 mg/kg.

What about the ED50 [2, 6] of the same compound?
The ED50 was 3.7 mg/kg.

What about the ED50 [2, 7] of the same compound?
Its ED50 is 21.8 mg/kg.

What does the source list for `O=C1[C@@H]2[C@H]3CC[C@H](C3)[C@@H]2C(=O)N1CCCCN1CCC(c2nsc3ccccc23)CC1` [Compound No. 2, N-[4-{4-(1,2-Benzisothiazol-3-yl)-1-piperidinyl}butyl]bicyclo[2.2.1]heptane-2,3-di-exo-carboximide]?
ED50 [1]: 10 to 30 mg/kg; ED50 [2, 6]: 3.5 mg/kg; ED50 [2, 7]: 3.4 mg/kg

Which ED50 [1] does the source give for `O=C(c1ccc(F)cc1)C1CCN(CCCCN2C(=O)[C@@H]3[C@H](C2=O)[C@H]2C=C[C@@H]3C2)CC1` [Compound No. 5, N-[4-{4-(4-Fluorobenzoyl)piperidinyl}butyl]bicyclo[2.2.1]hept-5-ene-2,3-di-exo-carboximide] here?
The ED50 was 25 mg/kg.

What about the ED50 [2, 5] of the same compound?
Its ED50 is less than 1 mg/kg.

What about the ED50 [2, 6] of the same compound?
Its ED50 is 1.3 mg/kg.

And the ED50 [2, 7]?
Its ED50 is 2.2 mg/kg.

For `O=C(CCCN1CCC(O)(c2ccc(Cl)cc2)CC1)c1ccc(F)cc1` [Haloperidol, 4-[4-(4-chlorophenyl)-4-hydroxy-1-piperidinyl]-1-(4-fluorophenyl)-1-butanone], which “extrapyramidal activity (catalepsy inducing activity), in words” value [3] is on record?
The value was “considerably high level of extra-pyramidal activity”.

What about the ED50 [1] of the same compound?
The ED50 was 3 mg/kg.

And the ED50 ([2]; po, 1 h, read-out: ED50, Oral administration After 1 hour (anti-climbing, neuroleptic activity))?
The ED50 was 0.67 mg/kg.

And the ED50 ([2]; po, 4 h, read-out: ED50, Oral administration After 4 hours (anti-climbing, neuroleptic activity))?
The ED50 was 0.44 mg/kg.

And the ED50 ([2]; sc, read-out: ED50, Subcutaneous administration (anti-climbing, neuroleptic activity))?
Its ED50 is 0.21 mg/kg.

What about the “neuroleptic activity (anti-climbing activity), in words” value ([2]; route not stated) of the same compound?
Its value is “significant neuroleptic activity”.

What about the “side effects on clinical use, in words” value [4] of the same compound?
Its value is “serious side effects such as catalepsy and hypotension”.

For `O=C1CC2(CCCC2)CC(=O)N1CCCCN1CCN(c2nsc3ccccc23)CC1` [Tiaspiron, 8-[4-(3-benzisothiazolyl)-1-piperazinylbutyl]-8-azaspiro[4,5]decane-7,9-dione], which ED50 [2, 5] is on record?
The ED50 was 0.23 mg/kg.

What about the ED50 [2, 6] of the same compound?
Its ED50 is 9.4 mg/kg.

What about the ED50 [2, 7] of the same compound?
The ED50 was 61.5 mg/kg.

What about the “extrapyramidal side effects such as catalepsy inducing activity, in words” value ([4]; in comparison with butyrophenone compounds such as haloperidol) of the same compound?
Its value is “alleviated in extrapyramidal side effects such as catalepsy inducing activity”.

With `CN(C)CCCN1c2ccccc2Sc2ccc(Cl)cc21` [chlorpromazine, 2-chloro-10-(3-dimethylaminopropyl)phenothiazine] as the compound, how does the “side effects on clinical use, in words” value [4] read?
The value was “serious side effects such as catalepsy and hypotension”.
